Source: patent US20240156965A1, “DICHALCOGENIDE PRODRUGS” (Ludwig-Maximilians-Universitat Munchen, priority 2021, published 2024)
Where a chain is given by its changes, count along the chain named. Entries after “also recorded” stand apart in the source; their conditions may differ. Read-outs that look alike come from different tables or passages of the source.

Tests used:
[1] = low concentration of GSH, within 20 minutes; cited from earlier work
[2] = biological target: T1, human recombinant thioredoxin reductase 1 (TrxR1) (Homo sapiens, UniProt Q16881); assay: Enzymatic activation assay with TrxR1, cell-free; format: biochemical; conditions: 10 μM probe
T1 sequence (Q16881 1-499 isoform Q16881-5): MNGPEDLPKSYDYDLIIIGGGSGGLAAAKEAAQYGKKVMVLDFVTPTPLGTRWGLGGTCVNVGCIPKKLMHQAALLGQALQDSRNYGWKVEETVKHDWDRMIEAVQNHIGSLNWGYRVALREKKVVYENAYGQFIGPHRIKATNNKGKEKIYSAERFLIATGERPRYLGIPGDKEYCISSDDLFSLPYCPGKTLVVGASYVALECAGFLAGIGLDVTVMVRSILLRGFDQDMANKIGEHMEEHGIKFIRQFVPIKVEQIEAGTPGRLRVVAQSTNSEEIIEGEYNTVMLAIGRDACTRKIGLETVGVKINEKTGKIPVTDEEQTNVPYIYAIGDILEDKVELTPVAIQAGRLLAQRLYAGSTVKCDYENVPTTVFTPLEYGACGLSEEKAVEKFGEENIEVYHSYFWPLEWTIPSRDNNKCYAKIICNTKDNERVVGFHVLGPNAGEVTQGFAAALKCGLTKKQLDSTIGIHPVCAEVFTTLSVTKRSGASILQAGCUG
Method: (§1) This cell-free assay (see FIG. 2) examined the processing of dichalcogenide-based fluorophore-releasing reduction-triggered probes that are compounds of the invention, by components of the cellular thioredoxin system.
(§2) Assay conditions and data representation: A black 96-well plate with black bottom was charged with solutions of probes (P1, P2, P3, P6, P7) to reach final reaction conditions: 100 μL of aq. TE buffer (pH 7.4), 10 μM probe concentration, 1 vol % DMSO, and 20 nM of human recombinant thioredoxin reductase 1 (TrxR1; in FIG. 1a), or 20 nM of either TrxR1 or thioredoxin reductase Sec498Cys mutant (TrxR1 U498C or “mut”; in FIG. 1b), or the indicated probe-to-reductant concentration ratios of TrxR1 (in FIG. 1c) or human recombinant thioredoxin 1 (Trx1; in FIG. 1d); with the final step being the addition of NADPH (100 μM final). The reaction mixtures were incubated at 37° C. for 3 to 6 h as shown with timecourse measurements of fluorescence as for FIG. 1. Data representation as for FIG. 1.

[3] = biological target: T2, human recombinant thioredoxin 1 (Trx1) (Homo sapiens, UniProt P10599); assay: Trx1 titration in Trx1/TrxR1 system, cell-free; format: biochemical; conditions: 10 μM probe
T2 sequence (P10599 2-105 limits assumed): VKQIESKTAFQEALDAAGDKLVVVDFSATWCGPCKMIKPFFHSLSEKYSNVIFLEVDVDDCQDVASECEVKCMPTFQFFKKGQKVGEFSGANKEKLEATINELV
Method: as §1, §2

[4] = tested on: glutaredoxins (Grx1 and Grx2) with GR and GSH; assay: Challenge with GR/GSH/Grx system reductants, cell-free; format: biochemical; conditions: 10 μM probe, GR 20 nM, GSH 100 μM, Grx1 or Grx2 up to physiological concentrations
From the text: (§3) This cell-free assay examined the stability of dichalcogenide-based reduction-triggered compounds of the invention when exposed to cellular monothiol reductant GSH, and its cellular partner reductants glutathione reductase (GR) and glutaredoxins (Grx1 and Grx2).
(§4) Assay Conditions: A black 96-well plate with black bottom was charged with solutions of fluorophore-releasing reduction-triggered probes that are compounds of the invention (P1, P2, P3, P6 and P7) or that are not compounds of the invention and reveal the performance of prior art systems (disulfide X26), reaching 100 μL final volume, 1% final DMSO, 10 μM probe, aq. TE buffer (pH 7.4), with the indicated concentrations of reductant (in FIG. 1a) or concentration ratios of reductant to probe (in FIG. 1b-d). TCEP (100 μM) was used as a quantitative reference reductant; and in the GR/GSH/Grx assays (FIG. 1c-d), GR was used at 20 nM, GSH at 100 μM, to maintain Grx in a reduced state suitable for challenging the probes without supplying a high concentration of either GSH or GR. Reaction mixtures were incubated at 37° C. for up to 6 h while measuring fluorescence intensity F over time, using a BMG Labtech FLUOstar Omega platereader (λexc=355 nm, λem=530 nm).
(§5) Data Representation: F^TCEP is the maximum possible fluorescence increase, corresponding to complete reduction-triggered cargo release by the TCEP incubation. F/F^TCEP thus gives the fluorescence intensity, as a fraction of the maximum possible fluorescence signal, at the indicated times.

[5] = biological target: T3, thioredoxin reductase Sec498Cys mutant (TrxR1 U498C) (Homo sapiens, UniProt Q16881); assay: Enzymatic activation assay with TrxR1 Sec498Cys mutant, cell-free; format: biochemical; conditions: 10 μM probe, 20 nM mutant, 100 μM NADPH
T3 sequence (Q16881 with tags, fused parts or gaps isoform Q16881-5): T1 sequence (Q16881 1-499 isoform Q16881-5) with U498C
Method: as §1, §2

[6] = tested on: HeLa cervical cancer cell line; assay: Cellular reduction assay in HeLa cells (fluorescence timecourse); format: cell-based, human; conditions: time- and dose-dependence
Method: (§6) Assay Conditions: Cells were cultured under standard conditions (Gao, L. et al. Cell Chemical Biology 2021, 28, 1-14. https://doi.org/10.1016/j.chembiol.2020.11.007), left to adhere for 24 h, then compounds were added to 100 μM with 1% vol DMSO. Fluorescence timecourse measurements were acquired as in the chemoreductant assay, with all conditions in triplicates.
(§7) Data Representation: F.I.(t) is the fluorescence intensity signal increase as compared to time zero signal (fluorescence intensity immediately following compound addition, before probe activation could occur), in arbitrary units although with the same detection settings for all probes releasing the same cargo. This corresponds to reduction-triggered cargo release.

[7] = Challenge with monothiol reductant GSH, cell-free fluorogenic cargo release; format: physicochemical; conditions: 10 μM probe
From the text: as §3, §4, §5

[8] = tested on: HeLa cells; assay: In vitro cell viability assay (resazurin); format: cell-based, human; conditions: 48 h incubation, read-out: EC50 (antiproliferation / cell viability)
Method: Assay Conditions: HeLa cells were cultured under standard conditions (Gao, L. et al. Cell Chemical Biology 2021, 28, 1-14. https://doi.org/10.1016/j.chembiol.2020.11.007), left to adhere for 24 h, then compounds were added from DMSO stock solution and adjusted to 1% vol DMSO. Cells were further incubated for 48 h, then 0.20 volume equivalents of a solution of resazurin in PBS (0.15 mg/mL) were added and incubated for 3 hours, then fluorescence (ex 544 nm, em 590 nm) was detected on a fluorescence platereader. Cell viability (%) is calculated from the fluorescence values, relative to a control experiment with no compound added.

[9] = tested on: selenium-dependent reductases in cells; assay: Cellular reduction assay with selenium starvation or supplementation; format: cell-based
Method: as §6, §7

COc1cccc2ccc3c(c12)Oc1cc(NC(=O)OCC[Se][Se]CCO)ccc1C31OC(=O)c2ccccc21 (centres unmarked) [E2]
fluorescence signal with GSH [1]: strong signal turn-on

CN1CCN(C(=O)CCN(C(=O)Oc2ccc(Cl)cc2-c2nc3ccc(Cl)cc3c(=O)[nH]2)[C@H]2CC[Se]SC2)CC1 [P7]
cargo release on exposure to TrxR1 (timecourse) ([2]; 20 nM TrxR1, 100 μM NADPH, 37 °C): release their cargo rapidly; also recorded: release cargo very rapidly
response in TrxR titration ([2]; TrxR down to 5 nM): excellently responsive; also recorded: sensitively
cargo release with increasing Trx1 at fixed TrxR1 [3]: identical release of cargo; also recorded: did not affect the outcomes
triggering by GR/GSH/Grx systems [4]: resist triggering; also recorded: total resistance to Grx challenge
cargo release by TrxR1 U498C mutant [5]: do not respond to the mutant; also recorded: did not cause cargo release
fluorescence signal generation F.I.(t) in HeLa cells [6]: strong time- and dose-dependent fluorescent signal increase; also recorded: generated strong fluorescent signal
sensitivity to GSH in GSH titration, signal F/F^TCEP ([7]; 3 h timepoint, GSH up to 10 mM): very low sensitivity
cargo release when challenged with GSH / GSH system reductants ([7]; relevant cellular levels): high resistance to GSH challenge

CN(C(=O)Oc1cc2c(c3ccccc13)[C@H](CCl)CN2C(=O)c1cc2cc(OCCCN3CCC3)ccc2[nH]1)[C@H]1CCS[Se]C1 [P8]
EC50 [8]: < 100 nM
EC50 ([8]; Homo sapiens, 48 h): ~60 nM

CNCCSSCCN(C)C(=O)Oc1ccc(Cl)cc1-c1nc2ccc(Cl)cc2c(=O)[nH]1 [X26, 4-chloro-2-(6-chloro-4-oxo-3,4-dihydroquinazolin-2-yl)phenyl methyl(2-((2-(methylamino)ethyl)disulfaneyl)ethyl)carbamate, reference compound]
effect of selenium starvation/supplementation on cellular signal generation [9]: not sensitive to selenium supplementation
fluorescence signal generation F.I.(t) in HeLa cells [6]: also generated signal
response to GSH-triggered release of fluorescent cargo PQ-OH (timecourse) ([7]; subphysiological GSH 1 mM, TE buffer pH 7.4, 37 °C): rapidly and strongly affected; also recorded: rapid response
